Reference: patent publication US9717222B2, “Taste independent brain nutrient sensor that mediates hunger” (New York University, priority 2014, dated 2017)
“Also recorded” adds a separate entry of the source.

How the values were obtained:
hemolymph glycemia = assay: Prandial rise of hemolymph glycemia after glucose feeding with or without phlorizin; assay type: in vivo, Drosophila melanogaster; conditions: 18-hour starved flies fed 100 mM glucose with 10 mM phlorizin for 20 minutes (FIG. 1b)
Description: Glycogen and glycemia were measured as previously described^6. For the prandial rise of hemolymph glycemia, flies were starved for 18 hours, and then fed with 100 mM glucose (with or without 10 mM phlorizin) for 15-20 minutes. Their hemolymph was immediately collected and measured.

Drosophila melanogaster = assay: Two-choice feeding assay (food preference); assay type: in vivo; conditions: for food choice: 200 mM L-glucose+phlorizin versus 50 mM D-glucose+phlorizin: 18 hours food deprivation (FIG. 4); for food choice: glucose mixed with phlorizin versus plain agar: 100 mM glucose
Description: Feeding assays were performed as previously described^6 using 50 flies per two-choice arena. Briefly, ˜50 4-8 days old male flies were starved in an empty vial with wet Kim wipe for 5 or 18 hours, and then given a choice between two sugars, or a sugar and plain agar for 2 hours. Food preference was determined as percent preference index (PI %) by scoring the abdomen color of each fly: % PI=(#eaten food1+0.5×#eaten both)−(#eaten food2+0.5×#eaten both)]/(total #flies eaten) All sugars, except for L-glucose (Carbosynth), were from Sigma. For FIG. 1c, 10 mM phlorizin (Sigma) was added to warm agar with or without sugar. For the experiments in the dark, individual plates were wrapped in aluminum foil and then placed in a dark drawer while tested flies were making a choice between the two substrates. For the neural silencing experiments, flies bearing UAS-Kir2.1, Ptubulin-GAL80^ts, and a GAL4 driver were treated as described^17. These flies were raised at 18° C., incubated at 29° C. for 40 hours, starved at 29° C. for next 18 hrs and then tested in the two-choice assay at room temperature. For a negative control, the flies were raised and starved at 18° C., and tested at room temperature. Because metabolism is slower at 18° C. than at 25-29° C., the flies at 18° C. needed to be starved for a longer period. Thus, we determined that the 18 hours of starvation at 25-29° C. is equivalent to the 50-60 hours of starvation at 18° C. Also, see FIG. 11.

## O=C(CCc1ccc(O)cc1)c1c(O)cc(O)cc1O[C@@H]1O[C@H](CO)[C@@H](O)[C@H](O)[C@H]1O [Phlorizin]
Hemolymph glycemia
  prandial rise in hemolymph glycemia: preventing a prandial rise in glycemia
Drosophila melanogaster; control flies
  food choice: 200 mM L-glucose+phlorizin versus 50 mM D-glucose+phlorizin: chose the more concentrated (sweeter) L-glucose; also recorded: chose the sweeter L-glucose
Drosophila melanogaster; control poxnΔM22-B5;SuperA158, 18 h food deprived, 10 mM phlorizin (FIG. 1c)
  food choice: glucose mixed with phlorizin versus plain agar: can distinguish glucose mixed with phlorizin from agar
Drosophila melanogaster; taste-blind (poxnΔM22-B5) and sugar-blind (Gr5a;Gr64a) mutants
  food choice: 200 mM L-glucose+phlorizin versus 50 mM D-glucose+phlorizin: failed to discriminate between Lglucose+phlorizin and D-glucose+phlorizin; also recorded: showed equal preference for these two enantiomers
Drosophila melanogaster; taste-blind poxnΔM22-B5, 18 h food deprived, 100 mM fructose, 10 mM phlorizin (FIG. 1c)
  food choice: fructose mixed with phlorizin versus plain agar: able to detect the nutritional value of fructose mixed with phlorizin
Drosophila melanogaster; taste-blind poxnΔM22-B5, 18 h food deprived, 10 mM phlorizin (FIG. 1c)
  food choice: glucose mixed with phlorizin versus plain agar: failed to consume glucose mixed with phlorizin
